From PMC12587390, “Metabolite Identification Data in Drug Discovery, Part 1: Data Generation and Trend Analysis” (Molecular Pharmaceutics, 2025) come the findings set out here.

Data set [1] has as its system dog hepatocytes. Kind of data set: Metabolite identification in dog hepatocyte incubations. Type of data set: in vitro ADME. To be noted: Cmpd 28 incubated for 120 min, 4 μM. The procedure: (§1) Cryopreserved, pooled primary human, dog, and rat hepatocytes were obtained from BioIVT (previously Celsis IVT). L-15 Leibovitz buffer was placed in a water bath to reach 37 °C. Cryopreserved hepatocytes were transferred from a −150 °C freezer on dry ice and immediately immersed in a preheated water bath kept at 37 °C for thawing. When only a small ice crystal could be seen, the content was emptied into a 50 mL falcon tube filled with warm buffer (maximum four vials/falcon tube). The suspension was centrifuged at room temperature for 3 min at 50 g. The supernatant was removed, the pellet was resuspended in a small volume of buffer, and the falcon tube was refilled with buffer, followed by another centrifugation to wash away any remaining storage buffer. Thereafter, the supernatant was removed, and the pellet was dissolved in a small volume of buffer and diluted to a concentration of about 3–5 million cells/mL. After counting the cells using a Casy cell counter, the suspension was diluted to 1 million viable cells/mL and kept at room temperature until use. The viability cutoff was 80%.
(§2) An aliquot of 245 μL of hepatocyte suspension was added to a round-bottomed 96-deep-well plate using a manual multipipette. The deep-well plate was preincubated for 15 min at 37 °C and 13 Hz. Substrate solutions of the assay compounds were prepared by the robot in a 96-well plate as follows: 4 μL of 10 mM DMSO stock solution, followed by the addition of 96 μL of ACN:water (1:1, v:v) and mixing by shaking. 50 μL from each well were transferred to and combined in a new plate, resulting in 100 μL per well and a dilution of 1:1.
(§3) The reaction was started by the addition of 5 μL of 200 μM substrate solution to the preheated hepatocyte suspension, resulting in a final substrate concentration of 4 μM (0.04% DMSO, <0.5% ACN). The incubation was continued at 37 °C and 13 Hz. At each time point (0, 40, and 120 min), a 50 μL sample was taken out and quenched in 200 μL of cold ACN:methanol (1:1, v:v), and the stopped plates were centrifuged for 20 min (set at 4 °C and 4000 g). The supernatant was diluted by taking 50 μL and mixing it with 100 μL of water. Incubations of the positive controls, albendazole and dextromethorphan, were performed in parallel as described above.
(§4) Structural characterization of metabolites and metabolite profiling were performed using the Waters Acquity ultraperformance liquid chromatography (UPLC) system fitted to a Waters High-Resolution Mass Spectrometer (MS) (Xevo G2-S, Synapt G2-Si, or a Synapt XS MS). The Waters MS systems, equipped with an electrospray ionization (ESI) source, were operated in positive-ion sensitivity mode over a mass range m/z 50–1200 and in negative-ion sensitivity mode over a mass range m/z of 50–1200.
(§5) The reversed-phase gradient elution was performed on an Acquity U(H)-PLC BEH C18 column (2.1 × 100 mm, 1.7 μm, Waters) set at 45 °C. The mobile phases consisted of 0.1% FA in water (A) and ACN (B). […] The injection volume was 2 μL. The MS settings were optimized for the respective MS instrument. […] A scan time of 0.1 s was used, and data were acquired in centroid mode. Collision energy was set to “off” for the low-energy function, whereas in the high-energy MSe functions, the collision energies were typically ramped from 15 to 35 V in the trap cell, with constant collision energies of 20 V in their transfer cells. Cone voltage was set to 25 V for both low- and high-energy functions. For dedicated MS/MS, the m/z of the molecular ion was selected in the quadrupole, and the mass range for fragmentation analysis was typically set between 50 and 1200. The collision energies were either the same as those stated above for MSe data generation or optimized for a specific metabolite.

The nature of data set [2]: MetID on in vivo dog samples (plasma, urine). Also noted: species or system dog (beagles). To be noted: sampled at 3 h and 30 min. As to the method: (§6) The workup procedure could vary somewhat depending on the compound and dose, but the general procedure was as follows: Two volumes of ACN/methanol (1:1, v:v) were added to the plasma samples and vortex-mixed to precipitate the proteins. Thereafter, the samples were centrifuged for 10 min (at 10,000 g and 4 °C), and the supernatants were diluted with one volume of water. The urine samples were diluted with one volume of ACN/methanol (1:1, v:v) and centrifuged for 10 min (at 10,000 g and 4 °C), followed by a 1:1 dilution with water.
as §4
(§7) The reversed-phase gradient elution was performed on an Acquity U(H)-PLC BEH C18 column (2.1 × 100 mm, 1.7 μm, Waters) set at 45 °C. The mobile phases consisted of 0.1% FA in water (A) and ACN (B). […] The injection volume was 2 μL. The MS settings were optimized for the respective MS instrument. […] A scan time of 0.1 s was used, and data were acquired in centroid mode. Collision energy was set to “off” for the low-energy function, whereas in the high-energy MSe functions, the collision energies were typically ramped from 15 to 35 V in the trap cell, with constant collision energies of 20 V in their transfer cells. Cone voltage was set to 25 V for both low- and high-energy functions. For dedicated MS/MS, the m/z of the molecular ion was selected in the quadrupole, and the mass range for fragmentation analysis was typically set between 50 and 1200. The collision energies were either the same as those stated above for MSe data generation or optimized for a specific metabolite. Tune parameters for all MS analyses consisted of a capillary energy of 0.5 kV, sampling cone energy of 40 V, source temperature of 150 °C, desolvation temperature of 550 °C, cone gas flow of 0 L/h, desolvation gas flow of 1200 L/h, and nebulizer pressure of 6.5 bar.
(§8) Metabolite identification was conducted by processing the generated data using the MetaboLynx XS browser (Waters), MassMetaSite and the web interface ONIRO (Mass Analytica). […] Accurate masses of metabolites were determined from the protonated molecules in the positive ESI time-of-flight MS (ESI–TOF–MS) mode and from the deprotonated molecules in the negative ESI–TOF–MS mode. […] For those metabolites where no MS/MS data could be acquired, identification was based on the accurate mass of the molecular ion and the fragmentation seen in the MSe spectrum. Relative amounts of detected metabolites were calculated as % of the total MS area by dividing the MS peak area for the metabolite (or parent compound) by the combined MS peak area for the parent compound and all identified metabolites.

The nature of data set [3]: MetID on in vivo rat plasma samples. Also on record: species or system rat (Han Wistar). As to the method: as §6, §4, §7, §8
Data set [4] relates to human hepatocytes. Kind of data set: Metabolic stability in human hepatocytes (HH CLint). The data set is classed as in vitro ADME. Particulars: 37 °C, 2 h. The procedure:
Metabolic stability in human hepatocytes (HH CLint) was measured by incubating the cells with the test compound at 37 °C for 2 h. An aliquot of the mixture was taken at typically nine defined time points, and the metabolic reaction was stopped by adding ACN. The samples were centrifuged, and the supernatant was analyzed via LC-MS/MS. Intrinsic clearance (CLint) was calculated from the disappearance rate of the parent compound. ,

For data set [5], the system named is human hepatocytes. The data set is described as follows: Metabolite identification in human hepatocyte incubations. Particulars: 4 μM. Type of data set: in vitro ADME. The procedure: as §1, §2, §3, §4, §5
The nature of data set [6]: Thermodynamic solubility, shake-flask. Particulars: 10 mM sodium phosphate buffer, 25 °C, pH 7.4, aqueous buffer, thermodynamic from solid.
Protocol: Solubility was measured as the thermodynamic solubility using a shake-flask approach. Here, DMSO was evaporated from the compound stock solution as the first step. The “dried” compounds were then placed into 10 mM sodium phosphate buffer, adjusted to pH 7.4, and equilibrated at 25 °C for 24 h. The samples were centrifuged, and the solution was analyzed by LC-MS/MS to determine the amount of compound in solution.
Where [7] appears, read: after Cmpd 16, oral, sampled at 60 min.

A word on the solubility: it is the concentration that dissolves in the medium under given conditions.

Structures are written as SMILES. In brackets after ≈: the same amount, converted by molar mass.

With `Cc1nn(C)cc1NC(=O)[C@@H]1CCCC[C@H]1C(=O)c1ccc(-c2cc(C(=O)O)[nH]n2)cc1` [Cmpd 28 M7], the “% of the total MS area, Dog Hepatocytes (Mixed gender)” value in data set [1] is “not detected”. Moreover, the “% of the total MS area, Dog Plasma (Female)” value in data set [2] (after Cmpd 28) came to 5%. Also, in data set [3] (after Cmpd 28, sampled at 4 h), the “% of the total MS area, Rat Plasma (Female)” value was “not seen” and the “% of the total MS area, Rat Plasma (Male)” value is “not seen”.

As to `Cc1cc(-c2ccc(C(=O)[C@@H]3CCCC[C@H]3C(=O)Nc3c[nH]nc3C)cc2)n[nH]1` [Cmpd 28 M11], the “% of the total MS area, Dog Plasma (Female)” value in data set [2] (after Cmpd 28) is on record as 0.5%. In addition, in data set [3] (after Cmpd 28, sampled at 4 h), the “% of the total MS area, Rat Plasma (Female)” value is below 1% and the “% of the total MS area, Rat Plasma (Male)” value is 1%.

`O=C(O)[C@@H]1CCCC[C@H]1C(=O)c1ccc(-c2cc(CO)[nH]n2)cc1` [Cmpd 28 M10]: the “% of the total MS area, Rat Plasma (Male)” value in data set [3] (after Cmpd 28, sampled at 4 h) came out at 1%.

`O=C(O)[C@@H]1CCCC[C@H]1C(=O)c1ccc(-c2cc[nH]n2)cc1` [Cmpd 16 M10]: in data set [2] (after Cmpd 16, semiquantitative), the “% of the total MS area, Dog Plasma (Female)” value was found to be 1%. In data set [3] (setting [7]), the “% of the total MS area, Rat Plasma (Female)” value worked out at 1% and the “% of the total MS area, Rat Plasma (Male)” value is recorded as 1%.

For the compound `Cc1cc(-c2ccc(C(=O)[C@@H]3CCCC[C@H]3C(=O)Nc3cn(C)nc3C)cc2)n[nH]1` [Cmpd 28, Cc1cc(-c2ccc(C(=O)[C@@H]3CCCC[C@H]3C(=O)Nc3cn(C)nc3C)cc2)n[nH]1], in data set [2] (after Cmpd 28), the “% of the total MS area, Dog Plasma (Female)” value is recorded as 34%.

Consider `COc1ccc(-c2nnc(C(=O)N3CC(Oc4ccc(CN5CC(C)(O)C5)c(C)c4)C3)o2)cc1` [Cmpd 81, COc1ccc(-c2nnc(C(=O)N3CC(Oc4ccc(CN5CC(C)(O)C5)c(C)c4)C3)o2)cc1], for which the “HH CLint” value in data set [4] stood at 17 μL/min/1E6. Further, the “Metabolites / metabolic pathways identified” value in data set [5] was “O-demethylation pathway remains the major metabolic route”. In addition, the solubility at 24 h in data set [6] was 71 µM (≈ 33 µg/mL).

As for `Cc1cc(-c2ccc(C(=O)[C@@H]3CCCC[C@H]3C(N)=O)cc2)n[nH]1` [Cmpd 28 M8], in data set [3] (after Cmpd 28, sampled at 4 h), the “% of the total MS area, Rat Plasma (Female)” value was found to be 1% and the “% of the total MS area, Rat Plasma (Male)” value is given as 3%.

For `CC(=O)Nc1cn(C)nc1C` [Cmpd 28 M12], in data set [3] (after Cmpd 28, sampled at 4 h), the “% of the total MS area, Rat Plasma (Female)” value is on record as 1% and the “% of the total MS area, Rat Plasma (Male)” value is recorded as 1%.
